Results reported in US11357774B2, “Use of a quinoline sulfonyl compound for treatment of inflammation, inflammatory disorders, autoimmune disorders and malaria” (priority 2019, dated 2022).
Read-outs that look alike come from different tables or passages of the source.

Columns and labels:
[1] = test system: PBMC cells; assay: Sulforhodamine B (SRB) assay, IC50 on PBMC; format: cell-based, human; conditions: read-out: IC50
Method: (§1) The sulforhodamine B (SRB) assay^21 was used to determine the drug concentration that half of the cell growth/viability is inhibited (IC50). Cells were cultured in 96-well plates, with 5,000 cells in 100 μL of culture medium per well. The rest of the protocol was the same as described previously^22,23.
(§2) Data shown in Table 1 are IC50 values of VR23 and other compounds, which were determined using sulforhodamine B (SRB) assays on immunologically relevant cells (THP-1, SW-982 and PBMC). […] Two well-known proteasome inhibitors, BTZ and CFZ, were included for comparison since VR23 is also a proteasome inhibitor, albeit targeting different subunits^2. The widely used anti-inflammatory DEX was included, also for comparison.
(§3) THP-1, SW982 and PBMC cells (5,000 cells/well) were treated with each compound for 48 hours. The IC50, the drug concentration reducing cell growth/viability by 50%, was determined by a dose-response four-parameter curve (generated with GraphPad Prism V. 4.02) formed by 10 two-fold dilutions (n=3).

[2] = test system: IL-8 secretion in THP-1 cells; assay: IL-8 secretion in TNF-α-stimulated THP-1 cells (ELISA); format: cell-based, human; conditions: THP-1, TNF-α 10 ng/mL, 6 hours; VR23 at IC50 concentration (between 2 and 4 μM), BTZ 6 nM, CFZ 1 nM
Method: For comparison, BTZ (6 nM), CFZ (1 nM), and DEX (2 μM) were also included. *** is p<0.001, which denotes a significant difference from the TNF-α-only group, determined by a Dunnett's test. The values presented are the mean±SEM (n=3).
(§4) The enzyme-linked immunosorbent assay (ELISA) is a quantitative measurement based on sandwich-based enzyme linking, using a protein-specific capture antibody to determine the levels of single or multiple chemokines and cytokines.
The data in FIG. 12 show the levels of IL-8 secreted in the THP-1 culture medium in response to TNF-α alone (10 ng/mL) or in combination with varying concentrations (0.5, 1.0, 2, 4 or 6 μM) of VR23. For comparison, BTZ (6 nM), CFZ (1 nM) and DEX (2 μM) were also included. The measurement time was 6-hour post-stimulation. The measurement was carried out with a single-analyte ELISA.

[3] = test system: THP-1 monocytic cells; assay: Sulforhodamine B (SRB) assay, IC50 on THP-1 cells; format: cell-based, human; conditions: read-out: IC50
Method: as §1, §2, §3

[4] = test system: IL-6 and TNF-α secretion in human PBMC; assay: IL-6 and TNF-α in PHA-p-stimulated human PBMC (ELISA); format: cell-based; conditions: PHA-p 10 μg/mL, 6 hours
Method: (§5) The values presented are the mean±SEM (n=2).
as §4
Data in FIG. 14 show the levels of IL-6 (upper plot) and TNF-α (lower plot) in human PBMC (1×10^6/mL cells) stimulated with 10 μg/mL phytohemagglutinin-p (PHA-p) (10 μg/mL) for 6 hours, in the absence (control) or presence of varying concentrations of VR23 (0.38, 0.75, 1.5, 3 or 6 μM) or BTZ (6.25, 12.5, 25 or 50 nM). The measurement was carried out with a single-analyte ELISA.

[5] = test system: IL-1β, TNF-α, IL-6 and IL-8 secretion in THP-1 cells; assay: Cytokine secretion in LPS-stimulated THP-1 cells (ELISA); format: cell-based, human; conditions: THP-1, LPS 5 μg/mL, 6 hours; VR23 0.5-6 μM, BTZ 6 nM, CFZ 1 nM, DEX 2 μM
Method: For comparison, BTZ (6 nM), CFZ (1 nM), and DEX (2 μM) were also included. *, **, and *** are p<0.05, p<0.01, and p<0.001, respectively, which denote a significant difference from the LPS-only group. The mean±SEM (n=3) values were determined by a Dunnett's test.
as §4
Data shown in FIG. 11 are the results of experiments carried out to investigate VR23's effect on the levels of inflammatory cytokines. […] For comparison, BTZ (6 nM), CFZ (1 nM) and DEX (2 μM) were also included. The levels of cytokine secreted in cell culture supernatants were measured by a single-analyte ELISA. The IC50 value of VR23 is 3 μM and the concentrations of BTZ, CFZ and DEX used are their respective IC50 values.

[6] = test system: IL-6 secretion in SW-982 synovial cells; assay: IL-6 secretion in IL-1β-stimulated SW-982 synovial cells (ELISA); format: cell-based, human; conditions: SW-982, IL-1β 1 ng/mL, 6 hours; VR23 10 μM, HCQ 60 μM
Method: The mean±SEM (n=2) values were determined by a Dunnett's test.
as §4
The measurement was carried out with a single-analyte ELISA. […] While not wishing to be limited by theory, cytokine IL-6 is strongly implicated to the progress of rheumatoid arthritis^29.

[7] = test system: SW-982 synovial cell line; assay: Sulforhodamine B (SRB) assay, IC50 on SW-982 cells; format: cell-based; conditions: Homo sapiens; SW982 cells, 48 hours, SRB; read-out: IC50
Method: as §1, §2, §3

[8] = test system: human fibroblast-like synoviocytes from rheumatoid arthritis patients (HFLS-RA); assay: Viability test, HFLS-RA cells; format: cell-based; conditions: 6 hours, IL-1β 10 ng/mL, VR23 1.25-5.0 μM, HCQ 7.5-30 μM
Method: The values presented are the mean±SEM (n=3).
The CCK-8 assay was used to count viable cells under the various treatment conditions. Briefly, cells were cultured in 11 columns of a 96-well clustered plate, with 5,000 cells in 100 μL of culture medium per well, excluding one column for a media-only control. The plate was incubated overnight at 37° C. in the humidified conditions, followed by treatment with test compounds diluted in the culture medium (10 μL). Each column was treated with a different condition so that each treatment could have 8 repeats. […] The absorbance was measured using an automatic plate reader (Synergy H4 Hybrid Multi-Mode Microplate Reader, BioTek, Montreal, Canada) at 450 nm wavelength. The cell viability of each treatment sample was determined by using the following equation (%)=(Abstrtmt-Absmedia)/(AbsuT-Absmedia)*100, where Abstrtmt is the absorbance value of cells with the various treatment conditions; Absmedia is the absorbance of the well containing media only; AbsuT is the absorbance of the wells with untreated cells.
This finding was extended to human cells relevant to autoimmune diseases. […] Cytokine levels in cell culture supernatants were determined by a single-analyte ELISA. […] The cytokine secretion was measured in cell culture supernatants by a single-analyte ELISA.

[9] = test system: IL-6 secretion in HFLS-RA cells; assay: IL-6 secretion in stimulated HFLS-RA cells (ELISA); format: cell-based, human; conditions: HFLS-RA, IL-1β 10 ng/mL, 6 hours; VR23 2.5-10 μM, HCQ 15 or 30 μM
Method: (§6) The mean±SEM (n=3) values were determined by a Dunnett's test.
as §5, §4
(§7) This finding was extended to human cells relevant to autoimmune diseases. Human fibroblast-like synoviocytes (HFLS) are present in the synovial fluid of joint capsules and produce harmful molecules that contribute to joint destruction and the exacerbation of the disease in rheumatoid arthritis patients. […] The cells were then stimulated with IL-1β (FIG. 16) or LPS (FIG. 17), in the absence (control; IL-1β only) or presence of VR23 or HCQ. HCQ was included for comparison because it is often used to treat rheumatoid arthritis. […] For “VR23 only” samples, 5 μM VR23 was used. Fifty thousand HFLS cells per mL were used for the experiment. Cytokine levels in cell culture supernatants were determined by a single-analyte ELISA. […] Fifty thousand HFLS cells per mL were used for the experiment. The cytokine secretion was measured in cell culture supernatants by a single-analyte ELISA.

[10] = test system: IL-6 secretion in HFLS-N cells; assay: IL-6 secretion in stimulated HFLS-N cells (ELISA); format: cell-based, human; conditions: IL-1β 10 ng/mL, 6 hours, VR23 2.5-10 μM, HCQ 15 or 30 μM
Method: as §6, §5, §4, §7

| Compound | IC50 ([1]; 48 hours) | IC50 ([1]; Homo sapiens, 48 h) | IL-8 secretion [2] | IC50 ([3]; 48 hours) | IC50 ([3]; Homo sapiens, THP-1, 48 h) | PHA-induced IL-6 ([4]; VR23 1.5 μM, BTZ 6 nM) | PHA-induced TNF-α ([4]; VR23 3.0 μM, BTZ 4× the IC50 dose) | levels of inflammatory cytokines IL-1β, TNF-α, IL-6, IL-8 [5] | secretion of IL-6 [6] | IC50 [7] | cell viability [8] | IL-6 secretion, dose dependence [9] | IL-6 secretion, dose dependence [10] |
| --- | --- | --- | --- | --- | --- | --- | --- | --- | --- | --- | --- | --- | --- |
| CC(C)C[C@H](NC(=O)[C@H](Cc1ccccc1)NC(=O)c1cnccn1)B(O)O [BTZ, bortezomib, reference compound] | 5.86 ± 0.3 nM | 6 nM | substantially reduced IL-8 | 5.91 ± 0.34 nM | 6 nM | reduced the level of IL-6 | largely ineffective in reducing the level of TNF-α | do not | – | – | – | – | – |
| CC(C)C[C@H](NC(=O)[C@H](CCc1ccccc1)NC(=O)CN1CCOCC1)C(=O)N[C@@H](Cc1ccccc1)C(=O)N[C@@H](CC(C)C)C(=O)[C@@]1(C)CO1 [CFZ, carfilzomib, reference compound] | – | – | not effective at all | 1.01 ± 0.11 nM | 1 nM | – | – | do not | – | – | – | – | – |
| C[C@@H]1C[C@H]2[C@@H]3CCC4=CC(=O)C=C[C@]4(C)[C@@]3(F)[C@@H](O)C[C@]2(C)[C@@]1(O)C(=O)CO [DEX, Dexamethasone] | – | – | – | 2070 ± 67 nM | 2000 nM | – | – | – | – | – | – | – | – |
| CCN(CCO)CCCC(C)Nc1ccnc2cc(Cl)ccc12 (stereo not shown) [HCQ, hydroxychloroquine, reference compound] | – | – | – | – | – | – | – | – | comparable | 28.2 µM | none of the conditions examined significantly affected the viability | decreases in a dose dependent manner | decreases in a dose dependent manner |
